Assays:
[1] = DPPH test (antioxidant power); details: decrease of DPPH radical peak at 517 nm, spectrophotometry
Description: DPPH Test The DPPH test allows determining the antioxidant power by reacting the sample to be analyzed with a solution of DPPH [2,2-diphenyl-1-picrylhydrazyl, PM 394.33, […]] and analyzing the decrease in the peak at 517 of the DPPH^• radical at UV. Antioxidant compounds which are capable of transferring a hydrogen atom to the radical cause a loss of absorbance of the solution. The decrease of the DPPH^• radical peak at 517 nm is then analyzed by spectrophotometry after a predetermined incubation time. This decrease (discoloration) is proportional to the antioxidant load present in the sample. The results can also be expressed as IC50, i.e., the concentration of antioxidant compound which causes an initial 50% decrease in DPPH^•.

[2] = ORAC test (Oxygen Radical Absorbance Capacity); details: fluorescence decay under peroxyl radical flow; Trolox as reference standard
Excerpt: ORAC Test The ORAC method (Oxygen Radical Absorbance Capacity) is one of the most common methods for determining radical trapping capacity against peroxyl radicals. The principle of the test is based on the measurement of the decrease in the fluorescence intensity of a fluorescent target molecule (for example fluorescein), under a constant flow of peroxyl radicals, generated by the thermal decomposition of an azo compound. The results are expressed as equivalent Trolox® micromoles, using this compound as the reference standard.

**Q.** With `O=C1O[C@H]([C@@H](O)CO)C(O)=C1O` [Ascorbic acid] as the compound, how does the “DPPH IC50” value [1] read?
**A.** Its value is 7.196 ± 0.852 mg/L.

**Q.** What about the ORAC [2] of the same compound?
**A.** The ORAC was 2900 ± 310 μmol Trolox ® equivalent/g of sample.

Reference: patent US20240058413A1, “GRAPE SEED EXTRACT PREPARATION PROCESS AND EXTRACTS THUS OBTAINED” (Distillerie Bonollo Umberto - S.P.A. Con Sigla "U.B. S.P.A.", priority 2020, published 2024)
